Patent publication US20260115250A1, “METHODS OF TREATING AGE-RELATED MACULAR DEGENERATION” (Character Biosciences, Inc., priority 2022, published 2026)
Peptide text beside a SMILES is read from it.

Assays:
ABCA1 = biological target: T1, ABCA1 (Mus musculus, UniProt P41233); test: membrane ABCA1 stability testing in J774 cells; type: cell-based, murine; conditions: 4 hours
T1 construct: endogenous in cells; host or cells: J774 murine macrophage cells, ABCA1 induced with 8-Br-cAMP and AcLDL
Procedure: FIGS. 33A-33C illustrate the results of membrane ABCA1 stability testing in J774 Cells. J774 murine macrophage cells were seeded at 50,000 cells per well on 12-well plates and were allowed to grow to confluence. A vehicle solution of 0.1% BSA in serum-free DMEM was prepared for control wells. An ABCA1 induction solution of 0.1% BSA with 1 mM 8-Br-CAMP and 50 μg/mL AcLDL was prepared in serum-free DMEM and incubated on cells overnight at 37° C. to increase ABCA1 protein levels on the membrane. A solution of 10 μM peptide was prepared in serum-free DMEM and serially diluted 1:10 for 4 concentrations. ApoAI was prepared at a concentration of 300 nM. Peptides or ApoA1 were added to cells for 4 hours at 37° C. before isolating membrane protein and measuring membrane ABCA1 levels by western blot. Blots were quantified in ImageJ and the signal was normalized to membrane Na+/K+ pump levels. Signals were further normalized to the 18-hour cAMP treated group to determine percent (%) Membrane ABCA1 remaining.

LDLR [1] = biological target: T2, LDLR (Homo sapiens, UniProt P01130); test: KD (µM)
Excerpt: Table printed on a drawing sheet, FIG. 23
Title: Buffer: HBS + 0.05% P20
Head of the field: KD (µM)
The patent's description of the figure: FIG. 23 is a table showing the binding kinetics results of LDLR binding assays (SPR), high surfactant preparation as described herein for select peptides shown in FIG. 1A-1I.
First copying reader's note: Right of three side-by-side panels of FIG. 23; the KD cells hold value ± error together.
Where the first naming reader finds the target: description_of_the_figure: FIG. 23 is a table showing the binding kinetics results of LDLR binding assays (SPR), high surfactant preparation
Target sequence in this assay (P01130 22-860 limits assumed): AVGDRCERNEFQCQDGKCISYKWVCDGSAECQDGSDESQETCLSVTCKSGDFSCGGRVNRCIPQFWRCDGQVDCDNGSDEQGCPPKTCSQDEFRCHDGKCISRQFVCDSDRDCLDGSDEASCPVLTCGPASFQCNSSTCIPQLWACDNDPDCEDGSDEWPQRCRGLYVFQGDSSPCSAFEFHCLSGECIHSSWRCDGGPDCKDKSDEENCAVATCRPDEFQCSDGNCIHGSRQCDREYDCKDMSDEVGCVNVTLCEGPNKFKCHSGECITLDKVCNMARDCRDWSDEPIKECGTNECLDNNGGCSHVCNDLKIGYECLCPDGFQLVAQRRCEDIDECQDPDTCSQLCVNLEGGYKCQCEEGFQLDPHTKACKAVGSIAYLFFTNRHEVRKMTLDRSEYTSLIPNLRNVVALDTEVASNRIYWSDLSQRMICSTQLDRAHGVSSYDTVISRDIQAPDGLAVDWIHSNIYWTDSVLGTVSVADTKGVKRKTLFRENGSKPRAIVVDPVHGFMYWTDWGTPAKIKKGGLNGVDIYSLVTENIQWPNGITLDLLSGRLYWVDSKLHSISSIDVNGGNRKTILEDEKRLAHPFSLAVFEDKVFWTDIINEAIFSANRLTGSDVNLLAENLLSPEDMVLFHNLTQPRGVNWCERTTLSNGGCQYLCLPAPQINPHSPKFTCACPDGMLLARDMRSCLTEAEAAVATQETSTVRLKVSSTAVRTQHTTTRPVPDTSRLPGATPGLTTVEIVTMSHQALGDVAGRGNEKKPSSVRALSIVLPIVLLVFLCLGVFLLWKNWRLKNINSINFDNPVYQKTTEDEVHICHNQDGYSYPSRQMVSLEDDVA

ARPE-19 cells = test: ARPE-19 cell viability assay (Cell Titer Glo); type: cell-based, human; conditions: 100 μM peptide, 1.5 hours
Procedure: ARPE-19 cells were seeded in 96-well plates at 25,000 cells/well and allowed to adhere to the plate surface for at least 24 hours. Peptides were diluted in serum-free DMEM: F12 to a final concentration of 100 μM. Cells were washed, then incubated in 100 μM peptide solution for 1.5 hours at 37° C. Plates were brought to room temperature for 30 minutes, then washed with DPBS. Cells were incubated in a 1:1 mixture of DPBS and Cell Titer Glo 2.0 Reagent for 10 minutes at room temperature, then cell luminescence was read on a plate reader. Viability values were background corrected, and 0% viability is determined by luminescence values of cells treated with 1% Triton-X-100. Data are presented as mean+SD over two separate runs.

LDLR [2] = biological target: T2, LDLR; test: LDLR binding (SPR), high surfactant preparation; conditions: high surfactant preparation (HBS-P+), 1:1 binding model; read-out: binding KD to LDLR
In short: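 Surface plasmon resonance with recombinant LDLR amine-coupled to a CM5 chip at 1000 RU. Peptides, 5 μM top concentration then 1:3 dilutions (5 levels) in HBS-P+ with 1 mM CaCl2, injected 120 seconds at 30 μL/sec; multi-cycle kinetics fitted to a 1:1 binding model.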
Target sequence in this assay (P01130 22-860): as the sequence (P01130 22-860 limits assumed) above

T1 sequence (P41233 whole entry): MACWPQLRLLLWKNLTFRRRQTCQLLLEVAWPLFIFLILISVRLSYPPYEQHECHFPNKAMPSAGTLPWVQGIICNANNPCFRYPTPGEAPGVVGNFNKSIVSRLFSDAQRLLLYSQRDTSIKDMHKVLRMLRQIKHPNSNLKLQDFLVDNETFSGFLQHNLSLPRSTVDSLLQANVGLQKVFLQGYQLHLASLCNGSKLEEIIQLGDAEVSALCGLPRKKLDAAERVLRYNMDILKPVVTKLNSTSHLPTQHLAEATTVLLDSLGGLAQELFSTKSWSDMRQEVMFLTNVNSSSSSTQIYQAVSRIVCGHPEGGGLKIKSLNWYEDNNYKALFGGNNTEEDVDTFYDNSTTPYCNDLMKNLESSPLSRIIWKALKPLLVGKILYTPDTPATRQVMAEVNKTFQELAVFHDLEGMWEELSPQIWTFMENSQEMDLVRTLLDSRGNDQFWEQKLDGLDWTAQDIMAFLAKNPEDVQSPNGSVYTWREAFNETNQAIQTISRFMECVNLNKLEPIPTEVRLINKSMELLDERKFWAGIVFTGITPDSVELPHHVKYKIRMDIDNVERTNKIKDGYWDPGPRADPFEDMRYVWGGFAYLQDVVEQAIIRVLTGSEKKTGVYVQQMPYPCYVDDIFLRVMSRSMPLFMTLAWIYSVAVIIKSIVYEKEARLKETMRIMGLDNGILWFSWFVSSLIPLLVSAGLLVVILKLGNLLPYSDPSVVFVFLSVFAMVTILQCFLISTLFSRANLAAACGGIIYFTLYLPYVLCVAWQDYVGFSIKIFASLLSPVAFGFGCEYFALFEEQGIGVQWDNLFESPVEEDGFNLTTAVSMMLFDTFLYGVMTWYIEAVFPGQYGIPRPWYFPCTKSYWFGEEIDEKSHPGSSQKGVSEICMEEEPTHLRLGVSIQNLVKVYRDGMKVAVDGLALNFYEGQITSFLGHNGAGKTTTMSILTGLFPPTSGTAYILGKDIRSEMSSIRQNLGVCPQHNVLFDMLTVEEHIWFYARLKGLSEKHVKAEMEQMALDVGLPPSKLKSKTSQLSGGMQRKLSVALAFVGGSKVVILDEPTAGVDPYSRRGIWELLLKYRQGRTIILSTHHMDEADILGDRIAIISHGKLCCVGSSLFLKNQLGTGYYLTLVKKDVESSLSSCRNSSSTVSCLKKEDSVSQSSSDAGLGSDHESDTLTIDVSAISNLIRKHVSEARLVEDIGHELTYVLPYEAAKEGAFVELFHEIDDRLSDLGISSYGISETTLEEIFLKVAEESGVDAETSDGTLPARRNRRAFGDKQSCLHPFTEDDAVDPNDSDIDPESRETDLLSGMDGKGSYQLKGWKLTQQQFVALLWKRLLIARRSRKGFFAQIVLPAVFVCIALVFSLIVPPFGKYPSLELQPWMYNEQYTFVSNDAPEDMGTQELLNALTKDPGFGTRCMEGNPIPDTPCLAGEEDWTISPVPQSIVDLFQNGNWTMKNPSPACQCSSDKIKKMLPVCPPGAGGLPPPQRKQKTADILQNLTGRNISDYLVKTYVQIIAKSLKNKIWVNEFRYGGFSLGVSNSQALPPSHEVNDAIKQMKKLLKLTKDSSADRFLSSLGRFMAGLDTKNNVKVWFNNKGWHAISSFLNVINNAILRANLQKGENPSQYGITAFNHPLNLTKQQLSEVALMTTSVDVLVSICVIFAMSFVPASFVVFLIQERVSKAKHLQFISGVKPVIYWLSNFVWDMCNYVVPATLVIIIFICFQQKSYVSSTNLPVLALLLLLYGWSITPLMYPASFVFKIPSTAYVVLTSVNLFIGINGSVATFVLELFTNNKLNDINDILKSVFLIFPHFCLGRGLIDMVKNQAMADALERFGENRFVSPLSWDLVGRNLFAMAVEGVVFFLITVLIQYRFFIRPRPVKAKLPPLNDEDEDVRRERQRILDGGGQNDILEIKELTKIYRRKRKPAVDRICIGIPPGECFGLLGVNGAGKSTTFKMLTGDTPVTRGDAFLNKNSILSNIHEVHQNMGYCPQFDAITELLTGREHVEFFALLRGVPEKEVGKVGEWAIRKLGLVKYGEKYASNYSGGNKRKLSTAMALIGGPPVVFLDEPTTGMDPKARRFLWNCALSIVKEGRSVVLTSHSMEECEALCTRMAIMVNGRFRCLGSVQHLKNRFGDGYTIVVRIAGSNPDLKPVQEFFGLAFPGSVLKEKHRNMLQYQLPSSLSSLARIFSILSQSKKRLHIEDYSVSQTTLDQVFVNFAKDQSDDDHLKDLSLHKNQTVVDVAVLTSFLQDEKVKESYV

| membrane ABCA1 levels after washout of 8-Br-cAMP (ABCA1) | Kd (LDLR [1]) [nM] | Kd (LDLR [2]) [nM] | Compound | ARPE-19 cell viability (ARPE-19 cells) |
| --- | --- | --- | --- | --- |
| preserved membrane ABCA1 levels | – | – | ApoA1: positive control protein ApoA1 (apolipoprotein A1) | – |
| – | 1200 ± 90 | < 10000 | CC(C)C[C@H](NC(=O)[C@H](CC(=O)O)NC(=O)[C@H](CCCCN)NC(=O)CNC(=O)[C@H](Cc1ccc(O)cc1)NC(=O)[C@H](CC(=O)O)NC(=O)[C@@H](NC(=O)[C@@H](NC(=O)[C@@H](NC(=O)[C@H](CCC(N)=O)NC(=O)[C@H](Cc1ccccc1)NC(=O)[C@H](Cc1ccc(O)cc1)NC(=O)[C@H](CCC(N)=O)NC(=O)[C@H](CO)NC(=O)[C@@H](NC(=O)[C@H](CC(C)C)NC(=O)[C@H](CO)NC(=O)[C@H](CCCNC(=N)N)NC(=O)[C@H](CC(C)C)NC(=O)[C@H](CC(C)C)NC(=O)[C@H](CCCNC(=N)N)NC(=O)[C@H](CCCCN)NC(=O)[C@H](CCCNC(=N)N)NC(=O)[C@H](CC(C)C)NC(=O)[C@H](CCCCN)NC(=O)[C@H](CCCNC(=N)N)NC(=O)[C@H](CC(C)C)NC(=O)[C@@H](N)Cc1c[nH]cn1)C(C)C)[C@@H](C)O)C(C)C)[C@@H](C)O)C(=O)O [T-109] (H-HLRKLRKRLLRSLVSQYFQTVTDYGKDL-OH) | substantial change in viability |
